From PubChem BioAssay AID328 (DTP/NCI, 2004)
Inconclusive results and toxic doses are left out. Rule for the calls: active = survival T/C of 150% or more; inactive = T/C below 125% in these data.

Assays:
[1] = test system: BDF1 mice, P388 leukemia ip; assay: NCI In Vivo Anticancer Drug Screen. Data for tumor model P388 Leukemia (intraperitoneal) in B6D2F1 (BDF1) mice; settings: endpoint: mean survival time, schedule: Q01DX009 (ip), vehicle: saline with Tween-80, higher = longer survival
Procedure, shortened: (§1)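 In tumour-bearing mice, survival after compound treatment is set against the vehicle group and given as a quotient.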

[2] = test system: BDF1 mice, P388 leukemia ip, median survival T/C; assay: as above; settings: endpoint: median survival time, vehicle: saline with Tween-80, higher = longer survival
Procedure, shortened: as §1

Measured: T/C

CNC(C)(C)C(SSSC(c1ccc(Cl)cc1)C(C)(C)NC)c1ccc(Cl)cc1 (stereo not drawn)
inactive: [1]; dose: 6.25 mg/kg/injection 95 % of control | [1]; dose: 12.5 mg/kg/injection 114 % of control | [1]; dose: 25.0 mg/kg/injection 103 % of control | [2]; dose: 12.5 mg/kg/injection, schedule: Q04DX003 (ip) 101 % of control | [2]; dose: 25.0 mg/kg/injection, schedule: Q01DX009 (ip) 102 % of control | [2]; dose: 25.0 mg/kg/injection, schedule: Q04DX003 (ip) 100 % of control | [2]; dose: 50.0 mg/kg/injection, schedule: Q01DX009 (ip) 94 % of control | [2]; dose: 50.0 mg/kg/injection, schedule: Q04DX003 (ip) 95 % of control
